In test [1] the test system is cytokinin-dependent tobacco callus Nicotiana tabacum L. cv. Wisconsin 38. The test can be described thus: cytokinin-dependent tobacco callus bioassay (plant cell division). In kind it is cell-based. To be noted: for activity (%) [10^−5 mol. l^−1 iP = 100%] / activity (%) [10^−6 mol. l^−1 Kin = 100%]: at the concentration with highest activity; for activity (%) [10^−5 mol. l^−1 iP = 100%]: relative to 10^−5 M iP; for effect on callus growth (cell proliferation) in high concentrations: concentrations exceeding 10 μM, up to 100 μM, FIG. 1; for activity (%) [10^−6 mol. l^−1 Kin = 100%]: relative to 10^−6 M Kin; for concentration with highest activity: growth of tobacco callus, fresh weight after four weeks. The method, then: Stimulatory effect of newly prepared derivatives was tested using cytokinin-dependent tobacco callus. The cytokinin-dependent tobacco callus Nicotiana tabacum L. cv. Wisconsin 38 was maintained at 25° C. in darkness on modified MS medium, containing per 1 liter: 4 μmol of nicotinic acid, 2.4 μmol of pyridoxine hydrochloroide, 1.2 μmol of thiamine, 26.6 μmol of glycine, 1.37 μmol of glutamine, 1.8 μmol of myo-inositol, 30 g of sucrose, 8 g of agar, 5.37 μmol of NAA and 0.5 μmol of the compound tested. Subcultivation was carried out every three weeks. Fourteen days before the bioassay, the callus tissue was transferred to the media without the compound tested. The biological activity was determined from the increase of the fresh callus weight after four weeks of cultivation. Six replicates were prepared for each concentration of the compound tested and the entire test was repeated twice. […] The compounds to be tested were dissolved in dimethylsulfoxide (DMSO) and the solution brought up to 10^−3 M with distilled water. […] From the obtained data, the concentration with the highest activity was selected for each compound tested. Relative activity of the compound at this concentration was calculated (Table 2). The activity obtained for 10^−6 M of the N9-unsubstituted parent cytokinins Kin and 10^−5 M iP, respectively, was postulated as 100% biological activity. […] For comparison, compounds bearing halogenbutyl substituent in position 9 were prepared and tested.
Cytokinins are known to have stimulatory effects on cell proliferation in their optimal concentrations, however typically in the concentrations exceeding 10 μM their effect on cell division turns into inhibitory (Holub et al., Plant Growth Regul. 26, 109-115, 1998). Therefore the effect of the high concentrations of the newly prepared derivatives was tested using cytokinin-dependent tobacco callus described in Example 6. The novel compounds 1, 2 and 4 were tested in high concentrations (1-100 μM) and the activities were compared with activities of their N9-unsubstituted parent cytokinins.

Test [2] concerns Amaranthus caudatus var. atropurpurea explants (cotyledons and hypocotyl). Description: Amaranthus bioassay (betacyanin formation). To be noted: for activity (%) [10^−5 mol. l^−1 iP = 100%]: at the concentration with highest activity; for concentration with highest activity: betacyanin formation, 48 h in darkness. The method, then:
The standard Amaranthus bioassay with several modifications was used to study cytokinin activity of the novel compounds. The seeds of Amaranthus caudatus var. atropurpurea were surface-sterilised in 10% (w/v) N-chlorobenzenesulfonamide for 10 min and washed 5 times with deionized water. They were placed in 14 cm Petri dishes containing paper tissues saturated with deionized water. After 72 h of cultivation at 25° C. in darkness, the roots of the seedlings were cut off. The explants, consisting of two cotyledons and hypocotyl, were placed in 5 cm Petri dishes onto two layers of filter paper soaked with 1 ml of the incubation medium containing 10 μmol of Na2HPO4—KH2PO4, pH 6.8, 5 μmol of tyrosine and the cytokinin to be tested. There were 20 explants per dish. The procedure was carried out under a green safe light in a darkroom. After 48 h of incubation at 25° C. in darkness, betacyanin was extracted by freezing the explants in 4 ml […] acetic acid. The concentration of betacyanin was determined from the absorbances at 537 nm and 620 nm as follows: ΔA=A537 nm−A620 nm. The values ΔA were plotted against the concentration tested, are means of five replicates and the entire test was repeated twice. […] The compounds to be tested were dissolved in dimethylsulfoxide (DMSO) and the solution brought up to 10^−3 M with distilled water. […] The activity obtained for 10^−5 M iP was postulated as 100%.

The subject of test [3] is detached leaf segments of Triticum aestivum cv. Hereward. The test can be described thus: senescence bioassay on detached wheat leaf segments in light conditions (chlorophyll retention). To be noted: for concentration with highest activity: constant light 100 μmol·m^−2·s^−1, 22° C.; for activity (%) [10^−4 mol. l^−1 Kin = 100%]: light, at the concentration with highest activity. The protocol:
(§1) Seeds of winter wheat, Triticum aestivum cv. Hereward, were washed under running water for 24 hours and then sown on vermiculite soaked with Knop's solution. They were placed in the growth chamber at 25° C. with a 16/8 h light period at 50 μmol·m^−2·s^−1. After 7 days, the first leaf was fully developed and the second leaf had started to grow. A tip section of the first leaf, approximately 35 mm long, was removed from 5 seedlings and trimmed slightly to a combined weight of 100 mg. The basal ends of the five leaf tips were placed in the wells of a microtiter polystyrene plate containing 150 μL of the tested derivative solution each. The entire plate was inserted into a plastic box lined with paper tissues soaked in distilled water to prevent leaf sections from drying out. After 96 h incubation in the dark at 25° C., the leaves were removed and chlorophyll extracted by heating at 80° C. for 10 min in 5 mL of 80% ethanol (v/v). The sample volume was then restored to 5 mL by the addition of 80% ethanol (v/v). The absorbance of the extract was recorded at 665 nm. In addition, chlorophyll extracts from fresh leaves and leaf tips incubated in deionised water were measured. The results are means of five replicates and the entire test was repeated twice. […] The compounds to be tested were dissolved in dimethylsulfoxide (DMSO) and the solution brought up to 10^−3M with distilled water. […] The activity obtained for 10^−4 M Kin was postulated as 100%.
The ability of the novel compounds to retard chlorophyll degradation in detached wheat leaves was tested also in the light conditions. The experiment was performed as described in Example 7 with modifications as follows—the incubation of the leaves with the compounds was done in the constant light (100 μmol·m^−2·s^−1) at 22° C.

Test [4] has the same test system. The test can be described thus: senescence bioassay on detached wheat leaf segments in dark conditions (chlorophyll retention). To be noted: for concentration with highest activity: 96 h, 25° C., chlorophyll A665; for activity (%) [10^−4 mol. l^−1 Kin = 100%]: at the concentration with highest activity. The method, then: as §1
The test system of the next test is VP14 gene. Description: expression of VP14 stress gene in intact maize plants (RT-PCR). Format: in vivo, Zea mays. The note with it: 5 μM. The method, then: Abscisic acid has a direct effect on up-regulation of genes involved in stress responses (Tan et al., 1997, Proc Natl Acad Sci USA, 94, 12235-40). 5-days-old maize seedlings were carefully transferred from substrate to nutrient solution supplemented with tested compound in 5 μM concentration and were cultivated for another 3 days. Transcript copy number of VP14 gene was determined in roots and leaves of treated plants independently by method of reverse transcription polymerase chain reaction.

The subject of test [5] is Zea mays cv. CELLUX seedlings. Description: root growth and development of maize seedlings in hydroponics. Format: in vivo. The note with it: 5 μM in nutrient solution; FIG. 3. The protocol:
To investigate in vivo effect of the new derivatives on the root growth and development, maize seeds (Zea mays cv. CELLUX, Morseva, Czech Republic) were imbibed in tap water and germinated in dark on a wetted filter paper. After 2 days, the germinated seedlings were transferred to aerated hydroponic tanks filled with Hoagland's nutrient solution (fifteens per one liter of Hoagland solution). The plants were grown in a chamber with 16 hrs light (250 μm-2 s-1) at 27° C. and 8 hrs dark period at 20° C. The nutrient solution was supplemented with 5 μM and 10 μM concentration of 6-furfurylamino-9-(2-chloroethyl)purine or 5 μM cytokinin kinetin (Kin). All solutions used for cytokinin treatment including negative control contained DMSO in final concentration of 0.01%.

[6] abbreviates: 3 days, related to untreated control = 1.

For `CC(C)=CCNc1ncnc2nc[nH]c12` [6-(3-methylbut-2-en-1-yl)aminopurine, reference compound], in test [1], the “activity (%) [10^−5 mol. l^−1 iP = 100%]” value was found to be 100% and the “effect on callus growth (cell proliferation) in high concentrations” value (“effect on callus growth” for short) is on record as “inhibited strongly the callus growth”. Further, in test [2], the “activity (%) [10^−5 mol. l^−1 iP = 100%]” value was determined as 100% and the “concentration with highest activity” value is recorded as 10^−5 mol. l^−1.

As to `BrCCCCn1cnc2c(NCc3ccco3)ncnc21` [6-furfurylamino-9-(4-bromobutyl)purine, reference compound], the “activity (%) [10^−6 mol. l^−1 Kin = 100%]” value in test [1] was 45 (±8) %. Moreover, in test [3], the “concentration with highest activity” value was 10^−4 mol. l^−1 and the “activity (%) [10^−4 mol. l^−1 Kin = 100%]” value was 60 (±16) %. In test [4], the “concentration with highest activity” value was 10^−4 mol. l^−1 and the “activity (%) [10^−4 mol. l^−1 Kin = 100%]” value is given as 1.2 (±2) %.

For the compound `ClCCCCn1cnc2c(NCc3ccco3)ncnc21` [6-furfurylamino-9-(4-chlorobutyl)purine, reference compound], the “activity (%) [10^−6 mol. l^−1 Kin = 100%]” value in test [1] is 62 (±7) %. Besides, the “concentration with highest activity” value in test [3] and in test [4] was 10^−4 mol. l^−1 throughout. Also, the “activity (%) [10^−4 mol. l^−1 Kin = 100%]” value was 119 (±6) % in test [3] and 72 (±13) % in test [4].

With `c1coc(CNc2ncnc3nc[nH]c23)c1` [6-furfurylaminopurine (Kin), 6-furfurylaminopurine, reference compound], in test [1], the “activity (%) [10^−6 mol. l^−1 Kin = 100%]” value is recorded as 100% and the “effect on callus growth” value was “inhibited strongly the callus growth”. Also, in test [3], the “concentration with highest activity” value is on record as 10^−4 mol. l^−1 and the “activity (%) [10^−4 mol. l^−1 Kin = 100%]” value was 100%. For the same compound, in the test on VP14 gene (setting [6]), the “Relative amount of transcripts, leaf” value is reported as 16.3 (±4.0) and the “Relative amount of transcripts, root” value is on record as 3.4 (±0.8). In addition, the “effect on VP14 expression / stress response” value in the test on VP14 gene (in words) was “significantly increases VP14 expression in both root and leaves of maize”. Moreover, in test [5], the “root and shoot phenotype of maize plants” value is “dramatic thickening and shortening of primary root with no lateral root formation”. Besides, in test [4], the “concentration with highest activity” value is listed as 10^−4 mol. l^−1 and the “activity (%) [10^−4 mol. l^−1 Kin = 100%]” value is given as 100%.

For `BrCCn1cnc2c(NCc3ccco3)ncnc21` [Compound 2, 6-furfurylamino-9-(2-bromoethyl)purine], in test [1], the “activity (%) [10^−6 mol. l^−1 Kin = 100%]” value is 110 (±3) %. Also, the “concentration with highest activity” value in test [3] and in test [4] was 10^−4 mol. l^−1 each time. Further, the “activity (%) [10^−4 mol. l^−1 Kin = 100%]” value in test [3] is 121 (±8) %; in test [4], 102 (±3) %.

Take `CC(C)=CCNc1ncnc2c1ncn2CCBr` [Compound 3, 6-[(3-methylbut-2-en-1-yl)amino]-9-(2-bromoethyl)purine]: the figures for the “activity (%) [10^−5 mol. l^−1 iP = 100%]” value in test [1] and in test [2] were 103 (±4) % and 116 (±9) %, respectively. For the same compound, the “concentration with highest activity” value in test [2] was 10^−4 mol. l^−1.

For the compound `CC(C)=CCNc1ncnc2c1ncn2CCCl` [Compound 4, 6-[(3-methylbut-2-en-1-yl)amino]-9-(2-chloroethyl)purine], in test [1], the “activity (%) [10^−5 mol. l^−1 iP = 100%]” value is on record as 112 (±7) % and the “effect on callus growth” value was “still kept their stimulatory effect”. In test [2], the “activity (%) [10^−5 mol. l^−1 iP = 100%]” value is on record as 128 (±11) % and the “concentration with highest activity” value is recorded as 10^−4 mol. l^−1.

As to `COc1cccc(CNc2ncnc3c2ncn3CCCl)c1` [Compound 38], in test [1], the “activity (%) [10^−6 mol. l^−1 Kin = 100%]” value is listed as 106 (±5) % and the “concentration with highest activity” value is 10^−5 mol. l^−1. For the same compound, in test [4], the “concentration with highest activity” value was 10^−4 mol. l^−1 and the “activity (%) [10^−4 mol. l^−1 Kin = 100%]” value is listed as 116 (±7) %.

As for `Oc1cccc(CNc2ncnc3c2ncn3CCCl)c1` [Compound 47], in test [1], the “activity (%) [10^−6 mol. l^−1 Kin = 100%]” value is on record as 111 (±2) % and the “concentration with highest activity” value was 10^−5 mol. l^−1. In test [4], the “concentration with highest activity” value was 10^−4 mol. l^−1 and the “activity (%) [10^−4 mol. l^−1 Kin = 100%]” value was 111 (±9) %.

Turning to `C/C(=C\C(C)Nc1ncnc2c1ncn2CCCl)CO` (centres unmarked) [Compound 136, 6-(E)-(4-hydroxy-1,3-dimethylbut-2-en-1-ylamino)-9-(2-chloroethyl)purine], the “activity (%) [10^−6 mol. l^−1 Kin = 100%]” value in test [1] is 115 (±7) %. Further, in test [4], the “concentration with highest activity” value is recorded as 10^−4 mol. l^−1 and the “activity (%) [10^−4 mol. l^−1 Kin = 100%]” value is reported as 114 (±4) %.

Values taken from US9220269B2, “Use of 6-substituted 9-halogenalkyl purines for regulation of growth and development of whole plants, plant cells and plant organs; novel 6-substituted 9-halogenalkyl purines” (UNIVERZITA PALACKEHO V OLOMOUCI, priority 2010, dated 2015).
